3 molecules from patent US9107852B2, “Uses of agonists of delta opioid receptor in cosmetic and dermocosmetic field” (Induchem Holding AG, priority 2012, dated 2015) can be followed below.

The target in one assay is T1, delta2 opioid receptor (Mus musculus, UniProt P32300).
T1 construct: host or cells: unnamed cells 'bearing the delta2 opioid receptor'
The assay can be described thus: Agonist effect at the delta2 opioid receptor (DOP), cell impedance. Particulars: percent of control specific agonist response (DPDPE). In kind it is cell-based. The protocol:
Frozen spinach leaves were thawed and disrupted in fine particles a blender. This juice was further treated with ultrasounds to disrupt cells and proteins were recovered by acidic precipitation. These proteins were then digested by several enzymes, including pepsin and papain. The hydrolysate was purified (ultrafiltration), fractionated and stored before testing. Meanwhile, synthetic peptides were ordered from a manufacturer. The peptides and the hydrolysates were tested on cells bearing the delta2 opioid receptor and cell impedance was measured to evaluate the binding activity of the tested compounds (Law and Loh, 1993).
The EC50 values (concentration producing a half-maximal specific response) and IC50 values (concentration causing a half-maximal inhibition of the control specific agonist response) were determined by non-linear regression analysis of the concentration-response curves generated with mean replicate values using Hill equation curve fitting (Y=D+[(A D)/(1+(C/C50)nH)], where Y=specific response, D=minimum specific response, A=maximum specific response, C=compound concentration, and C50=EC50 or IC50, and nH=slope factor).

Assay [1] relates to opioid receptor delta (DOR). In words: Expression of DOR in epidermis, tissue microarray immunohistochemical labeling. In kind it is cell-based, human. The settings on record: RHE treated with PMA at 2 μg, compared to non-treated RHE. The protocol: The protein expression of the opioid receptor delta (DOR) was analyzed using a “tissue microarray” (TMA) composed of numerous skin-related cellular models in order to identify the best models for further studies.
Formaldehyde-fixed tissues were dehydrated in multiple baths with increasing concentration of ethanol and then embedded in “Paraplast X-tra” paraffin. The transversal sections were carried out using a microtome (5 μm thickness) and kept at room temperature until staining.
The sections were deparaffinized then the antigenic sites were retrieved using specific buffers (pH6 and pH9). The sections were then washed and incubated with hydrogen peroxide. After an additional washing step, the sections were incubated with the primary antibody (anti-DOR). […] After peroxidase-conjugated streptavidine and peroxidase substrate addition, nuclei were counter-stained with a solution of haematoxylin. The slices were washed in ultra-pure water and mounted in aqueous medium.
Sections were observed using a NIKON E400 microscope. Images were captured with a NIKON DS-Ri1 and processed with NIS-Elements 3.10 software.

The subject of assay [2] is opioid receptor delta (DOR). The assay can be described thus: Scoring of DOR1 expression in RHE stimulated with cytokines. In kind it is cell-based, human. Particulars: JAK inhibitor I tested at 10 μM. As to the method:
In the present study, the effects of a peptide (YPLDLF, SEQ ID No 1) on the expression of opioid receptor delta (DOR) were researched on a reconstructed human epidermis (RHE) model under basal or stimulated conditions. More precisely, the RHE were stimulated by a mix of cytokines (IL-17+OSM+TNF-α) able to induce a strong inflammatory profile and a psoriatic phenotype in keratinocytes.
Reconstructed human epidermis (RHE) of 11 days old was prepared according to a derived method described by Poumay et al. (2004). These RHE were cultivated at 37° C. and 5% of CO2 in a specific maintenance medium.
The RHE treated under basal conditions were placed in assay medium containing or not (non-stimulated control) the peptide solutions and incubated for 54 hours. For inflammatory conditions, the RHE were placed in assay medium containing or not (stimulated control) the peptide solutions or the reference […] at 10 μM) and pre-incubated for 6 hours. The RHE were then stimulated with a mix of cytokines (IL-17+OSM+TNF-α at 3 ng/ml) and incubated for 48 hours. All experimental conditions were performed in n=3.
At the end of incubation, the supernatants were collected and the RHE were washed in phosphate buffered saline solution (PBS) for immunohistofluorescence analysis. […]

T1 sequence (P32300 whole entry): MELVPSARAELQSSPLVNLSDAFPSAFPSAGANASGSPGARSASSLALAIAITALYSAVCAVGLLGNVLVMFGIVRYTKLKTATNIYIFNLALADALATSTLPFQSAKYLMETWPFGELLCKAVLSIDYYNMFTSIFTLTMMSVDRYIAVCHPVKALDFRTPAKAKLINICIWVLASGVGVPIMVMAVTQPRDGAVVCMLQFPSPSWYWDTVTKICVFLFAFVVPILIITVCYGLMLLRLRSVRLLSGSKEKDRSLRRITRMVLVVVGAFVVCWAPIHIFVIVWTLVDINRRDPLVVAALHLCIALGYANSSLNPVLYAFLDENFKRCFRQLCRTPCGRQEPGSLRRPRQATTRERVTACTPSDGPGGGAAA

With “D-Penicillamine(2,5)-enkephalin [DPDPE, reference compound]”, at delta2 opioid receptor, the “A (Hill curve fit parameter)” value is on record as 0.0 and the “D (Hill curve fit parameter)” value was determined as 95.8.
Consider `CCCCCCCCCCCCCC(=O)O[C@@H]1[C@@H](C)[C@@]2(O)[C@@H](C=C(CO)C[C@]3(O)C(=O)C(C)=C[C@@H]23)[C@@H]2C(C)(C)[C@]12OC(C)=O` [PMA, Phorbol myristate acetate], for which the “expression of DOR” value in assay [1] is listed as “DOR was decreased after Phorbol myristate”.
As for JAK inhibitor I [reference compound], the “inhibitory effect of the cytokine mix on OPRD1 expression” value in assay [2] is listed as “reversed”.
